# From EP2292225A1 (priority 1997, dated 1998)
# Entries after “also recorded” stand apart in the source; their conditions may differ. Where two headings read alike, the source gives them in different places.
# Tests used:
# [1] = tested on: Vascular smooth muscle (BO54) cells; format: cell-based, baboon
# [2] = Biodistribution after i.p. injection (HPLC); format: in vivo, mice
# Experimental: Biodistribution of Cytochalasin B. To determine the biodistribution of cytochalasin B, mice were injected (i.p.) with 50 mg/kg cytochalasin B. Control mice were injected with DMSO/Tween 20/carboxymethyl cellulose ("vehicle"). The mice were sacrificed at 3, 12, 24 and 72 hours after cytochalasin B or vehicle administration. Organs were removed, homogenized, extracted and the amount of cytochalasin B in tissues quantitated by HPLC. About 75% of the cytochalasin B remained in the peritoneal cavity or at the injection site.
# [3] = tested on: swine coronary arteries; assay: Dose-response study of balloon traumatized coronary arteries (morphometry); format: in vivo
# [4] = tested on: balloon traumatized rabbit carotid artery; format: in vivo
# [5] = tested on: left carotid artery; assay: Inter-arterial infusion of crystals after balloon trauma (scintillation, autoradiography, morphometry); format: in vivo, Sprague-Dawley rats; conditions: for present over the treated length of artery: 1 mg crystalline in 300 ml vehicle
# Experimental: Another study employed twenty, male, Sprague-Dawley rats. The rats underwent balloon trauma to their left carotid artery, followed by inter-arterial infusion of a solution containing 1 mg crystalline cytochalasin B in […] vehicle (Hanks sterile salt solution with 0.5% Cremophor) or a diluent (saline) control. Animals were sacrificed immediately after infusion, and 2, 4, 7 and 14 days post-trauma and infusion. Post-sacrifice, the left and the right (control) carotid arteries were removed. Samples of arteries were obtained for quantitation of ^3H-cytochalasin B by oxidation and scintillation counting, histopathology, autoradiography and vascular morphometry. Histopathology documented uniform, circumferential balloon trauma in the arterial wall of the left carotid arteries.
# [6] = mouse, in vivo
# [7] = tested on: left carotid artery
# [8] = tested on: Vascular smooth muscle cells (BO54); assay: Scratch assay of smooth muscle cell migration; format: cell-based, baboon; set-up: key: - = no toxicity; +1 = minimal; +2 = mild; +3 = moderate; +4 = marked toxicity; conditions: Day 1/3/6/8/10 = r6/r8/r10/r12/r14
# Experimental: (§1) Scratch assays to determine the extent of smooth muscle cell migration inhibition by cytochalasin B were performed in accordance with the following protocol: • Vascular smooth muscle cells (BO54) were derived from explants of baboon aortic smooth muscle, as described in Example 10. The cells were grown in flat bottom, six well tissue culture plates, which hold about 5 ml of medium. The vascular smooth muscle cells were plated at 200,000 cells/well and placed at 37°C in a humidified 5% CO2 incubator for 18 hours. The wells were then scratched with a sterile portion of a single edge razor blade that was held by clamp or pliers and was brought aseptically into contact with the bottom of the well at a 90° angle. The cells from a small area along the scratch were removed by a sterile cotton tipped applicator while the blade was in contact with the bottom of the well. After incubation, the presence of cells in the "scratched" area is indicative of cell migration across the scratch line.
# (§2) Briefly, a stock solution of cytochalasin B (Sigma Chemical Co.) in dimethyl sulfoxide (DMSO) at 1 mg/ml was prepared. Test dilutions of cytochalasin B or control medium were added. Each experiment included two sets of plates: A set: Test agent exposure for 1, 3, 6, 8 and 10 days only; and B set: Test agent exposure for 1, 3, 6, 8 and 10 days, followed by a seven day recovery time with control medium. Both sets of plates were fixed (10% formalin in PBS) and stained (0.02% crystal violet) at the end of the timed exposures. Test concentrations for cytochalasin B were 1, 0.1 and 0.01 µg/ml, and a negative medium control was included. Fresh medium and drug were supplied 3 times per week.
# (§3) In this Table, "M" indicates Migration Grade, wherein - = no migration; +1 = minimal; +2 = mild; +3 = moderate; and +4 = marked (maximum density; limit of cell contact inhibition) migration of vascular smooth muscle cells into the cleared area adjacent to the scratch. In this Table, "T" denotes a morphological Toxicity Grade, wherein - = no toxicity; +1 = minimal; +2 = mild; +3 = moderate; and +4 = marked toxicity. The migration results are expressed as "Grade in the Cleared Area of the Well / Grade in an Undisturbed Region of the Well." The toxicity values represent a grade for all cells in each well.
# [9] = tested on: Vascular smooth muscle cells (BO54); assay: Scratch assay of smooth muscle cell migration; format: cell-based, baboon; set-up: key: - = no migration; +1 = minimal; +2 = mild; +3 = moderate; +4 = marked (maximum density; limit of cell contact inhibition) migration; conditions: for Migration Grade in an Undisturbed Region of the Well / Migration Grade in the Cleared Area of the Well: Day 1/3/6/8/10 = r5/r7/r9/r11/r13; for morphological Toxicity Grade: Day 1/3/6/8/10 = r6/r8/r10/r12/r14, listed as CY[…]
# Experimental: as §1, §2, §3
# [10] = Group 7a: 10% wt/wt, three weeks
# [11] = 7-day Recovery Post Exposure, 1.0 µg/mL
structure (smiles),measurement,setting,value
C=C1[C@@H](C)[C@H]2[C@H](Cc3ccccc3)NC(=O)[C@]23OC(=O)/C=C/[C@H](O)CCC[C@@H](C)C/C=C/[C@H]3[C@@H]1O [cytochalasin B],"minimum effective dose (MED), protein synthesis assay",[1]; 5 minute exposure,10 µg/mL
same,"minimum effective dose (MED), protein synthesis assay",[1]; 24 hour exposure,1.0 µg/mL
same,organ with the highest amount,[2]; 50 mg/kg i.p.,highest amount of cytochalasin B was found in the liver
same,remained in the peritoneal cavity or at the injection site,[2]; 50 mg/kg i.p.,About 75%
same,maximum tolerated dose,[2]; may be administered every second day,50 mg/kg
same,Mean % Lumen Area,"[3]; 0.1 µg/mL, 4 Days Post Surgery",97.0%
same,Mean % Lumen Area,"[3]; 1.5 µg/mL, 4 Days Post Surgery",101.7%
same,Mean % Lumen Area,"[3]; 1.5 µg/mL, 21 Days Post Surgery",100.9%
same,Mean % Lumen Area,"[3]; 10µg/mL, 4 Days Post Surgery",103.9%
same,Mean % Lumen Area,"[3]; 10 µg/mL, 21 Days Post Surgery",110.9%
same,myocardial or arterial lesions (histology),"[3]; 0.1, 1.5 or 10.0 µg/ml",did not result in myocardial or arterial lesions
same,Mean % Lumen Area,"[3]; 0.1 µ/mL, 21 Days Post Surgery",98.0%
same,intimal proliferation,"[4]; Group 1: 20 mg in 1 g bovine collagen gel, bovine collagen mesh wrap, 1 week",no intimal or adventital proliferation
same,intimal proliferation,"[4]; Group 1: 20 mg in 1 g bovine collagen gel, bovine collagen mesh wrap, 2 weeks",minimal intimal and adventital proliferation
same,intimal proliferation,"[4]; Group 1: 20 mg in 1 g bovine collagen gel, bovine collagen mesh wrap, three weeks",no intimal proliferation
same,intimal proliferation,"[4]; Group 2: 30% wt/wt in silicone wrap, 3 weeks","moderate, irregular intimal proliferation"
same,intimal proliferation,"[4]; Group 2: 30% wt/wt in silicone wrap, one week",no significant intimal or adventitial proliferation
same,intimal proliferation,"[4]; Group 2: 30% wt/wt in silicone wrap, two weeks",complete inhibition of intimal proliferation
same,intimal proliferation,"[4]; Group 3: 8 mg in 100 mg pluronic gel, bovine collagen mesh wrap, one week",mild intimal proliferation
same,intimal proliferation,"[4]; Group 3: 8 mg in 100 mg pluronic gel, bovine collagen mesh wrap, three weeks",moderate amount of intimal hyperplasia
same,intimal proliferation,"[4]; Group 3: 8 mg in 100 mg pluronic gel, bovine collagen mesh wrap, two weeks","mild, irregular intimal proliferation"
same,re-endothelization,"[4]; Group 3: 8 mg in 100 mg pluronic gel, one week",approximately 30%
same,intimal proliferation,"[4]; Group 4: 100 mg (10% wt/wt) in 1 g silicone wrap, one week",no intimal proliferation
same,intimal proliferation,"[4]; Group 4: 100 mg (10% wt/wt) in 1 g silicone wrap, three weeks",minimal to no intimal proliferation
same,intimal proliferation,"[4]; Group 4: 100 mg (10% wt/wt) in 1 g silicone wrap, two weeks",minimal intimal proliferation
same,re-endothelization,"[4]; Group 4: 10% wt/wt silicone wrap, three weeks",< 10%
same,intimal proliferation,"[4]; Group 7a: 10% wt/wt, one and two weeks",no intimal proliferation for 2 weeks
same,intimal proliferation,[4]; [10],mild irregular intimal proliferation
same,re-endothelized,[4]; [10],70%
same,intimal proliferation,"[4]; Group 8a: 10% wrap for 2 weeks, removed, evaluated 2 weeks later, animals 1254, 1255, 1256",none to mild; also recorded: mild to moderate intimal proliferation
same,intimal proliferation,"[4]; Group 10: 10 mg in 1 g silicone wrap (1% wt/wt) for 2 weeks, removed, 2 weeks later, animal 1304",moderate initmal proliferation
same,re-endothelization,"[4]; Group 10: 1% wrap for 2 weeks, removed, 2 weeks later, animal 1304",100%
same,re-endothelized,"[4]; Group 11: 1% wrap for 2 weeks, removed, four weeks later, animal 1308",100%
same,intimal proliferation,"[4]; Group 11: 1% wrap for 2 weeks, removed, four weeks later, animals 1307, 1308, 1309",moderate initmal proliferation; also recorded: moderate intimal proliferation; also recorded: marked intimal proliferation
same,qualitative difference between test and control animals,"[4]; Groups 10 and 11: 1% wt/wt silicone wrap for 2 weeks, removed, 2 or 4 weeks later",No significant difference
same,neointima formation compared to diluent treated rats,"[5]; crystalline, inter-arterial infusion",no statistically significant reduction in neointima formation
same,present over the treated length of artery,[5]; day 0,approximately 8 ug
same,present over the treated length of artery,[5]; day 2,less than 2 ng
same,levels in tissues,[6],very low levels
same,maximal recovery from tissue extracts,"[6]; iv, 3.5 mg/kg",32%
same,morphometry compared to untreated control animals,"[7]; 14 days, periadventitial crystals",no statistical difference from the controls
same,toxicity at the surgical site,"[7]; periadventitial crystals: cytochalasin B 7.8 - 11.8 mg/rat, taxol 3.4 - 6.5 mg/rat",significant toxicity at the surgical site
same,morphological Toxicity Grade,"[8]; 7-day Recovery Post Exposure, 0.01 µg/mL",-
same,morphological Toxicity Grade,"[8]; 7-day Recovery Post Exposure, 0.1 µg/mL",-
same,morphological Toxicity Grade,"[8]; Continuous Exposure, 0.1 µg/mL, listed as CY[…]",-
same,morphological Toxicity Grade,"[8]; Continuous Exposure, 1.0 µg/mL, listed as CY[…]",+4
same,Migration Grade in an Undisturbed Region of the Well,[9]; [11],+3
same,Migration Grade in the Cleared Area of the Well,[9]; [11],+2
same,morphological Toxicity Grade,"[9]; Continuous Exposure, 0.1 µg/mL",+1
same,Migration Grade in an Undisturbed Region of the Well,"[9]; Continuous Exposure, 1.0 µg/mL",+2
same,Migration Grade in the Cleared Area of the Well,"[9]; Continuous Exposure, 1.0 µg/mL",-
same,morphological Toxicity Grade,"[9]; Continuous Exposure, 1.0 µg/mL",+3
